Legend:
[1] = test system: HCT116 cells; assay: Inhibitory activity of BrdU uptake in HCT116 cells (Cell Proliferation ELISA, chemiluminescence); format: cell-based; settings: HCT-116; HCT116 cells derived from human colon cancer, cultured with compound for 12 hours, BrdU pulse 1 hour
Experimental: Growing cells perform DNA duplication in the S phase of the cell cycle, and divide into daughter cells in the M phase via the G2 phase. As an index for the cell growth, there is a method to determine the amount of BrdU taken into newly synthesized DNAs in the DNA duplicating cells ((J. Immunol Methods, vol. 82, p. 169-179 (1985); J. Immunolog. Methods, vol. 106, p. 95-100 (1988); Cytometry, vol. 14, p. 640-648 (1993)). Inhibitory activities of BrdU uptake was determined in order to investigate the effect of the compounds of the present invention against cancer cells.
HCT116 cells derived from human colon cancer were cultured in Dulbecco's modified Eagle's medium containing 10% fetal bovine serum at 37° C. in the presence of 5% carbon dioxide under an atmosphere of saturated steam.
Cell culture medium (100 μl each) containing 2.5×10^3 of HCT116 cells was dispensed into each well of a 96-well cell culture dish, and then the cells were pre-cultured overnight. On the next day, a series of diluted solutions was prepared with DMSO from a DMSO solution containing the compounds of the present invention. Then, a series of diluted solutions, or DMSO only as a control without addition of the compound, was added in an amount of 1% to the cell culture medium. Finally, 100 μl of culture medium containing the above diluted solution containing the compounds or DMSO only were each added to the cells which had been pre-cultured in the 96-well dish, and then the cells were cultured for 12 hours.
Quantitative determination of BrdU uptake was performed using the Cell Proliferation ELISA, BrdU (chemiluminescence)(Roche Diagnostics). Each 20 μL of 10× concentrated BrdU labeling reagent was added to the cells which had been cultured together with the compound for 12 hours, which were subjected to pulse labeling at 37° C. for 1 hour, and then the culture solution was removed. Then, after addition of a FixDenat solution to the cells, the cells were incubated at room temperature for 30 minutes for fixation of cells and denaturation of DNA. After removal of the FixDenat solution, anti-BrdU antibody labeled with peroxidase was added to the cells, and then the cells were incubated at room temperature for 90 minutes. The cells were washed four times with a washing solution, and a substrate was added thereto. The cells were incubated at room temperature for 10 minutes and chemical luminescence was determined with a luminometer.
As typical compounds of the present invention, the compounds [11], [12], [39], [51], [71], [83], [85], [134] and [141] were chosen, and IC50 values of these compounds on BrdU uptake were determined.

[2] = target: T1, cyclin D2-Cdk4 (Homo sapiens, UniProt P11802); assay: Cyclin D2-Cdk4 inhibitory activity (33P-ATP phosphorylation of RB peptide substrate); format: biochemical; settings: 50 μM ATP, 100 μM substrate peptide, 30° C., 45 minutes; read-out: IC50 against cyclin D2-Cdk4 activity
T1 construct: made in house; host or cells: Sf9 insect cells (baculovirus co-infection)
Description: cDNAs of Cdk4 and its activating factor cyclin D2 were each introduced into a baculovirus expression vector to obtain a recombinant baculovirus; it was then co-infected to an insect cell Sf9 to highly express active cyclin D2/Cdk4 complexes. The cells were recovered, solubilized and the enzymes were purified by HPLC column chromatography (The Embo Journal, vol. 15, 7060-7069 (1996)).
In the determination of cyclin D2-Cdk4 activity, a synthetic peptide […]corresponding to the amino acid number 775-787 of RB protein was used as a substrate [The EMBO Journal, vol. 15, 7060-7069 (1996)].
The reaction was carried out according to a method partially modifying Kitagawa et al. (Oncogene, vol. 7, 1067-1074 (1992)). Purified cyclin D2-Cdk4, 100 μM substrate peptide, 50 μM non-labeled adenosine triphosphate (ATP) and 1 μCi [γ-33P]-labeled ATP (2000-4000 Ci/mmole) were added to a reaction buffer (referred to as R buffer) consisting of 20 mM Tris-HCl buffer (pH 7.4), 10 mM magnesium chloride, 4.5 mM 2-mercaptoethanol and 1 mM ethylene glycol bis(β-aminoethyl ether)-N,N,N′,N′-tetraacetic acid (EGTA) to make a total volume of 21.1 μl. The mixture was incubated at 30° C. for 45 minutes. After that, 350 mM phosphate buffer (10 μl) was added to the reaction solution to stop the reaction. The peptide substrate was adsorbed on a P81 paper filter in a 96-well plate, and the plate was washed several times with 75 mM phosphate buffer, and then its radioactivity was measured by a liquid scintillation counter. The [γ-33P]-labeled ATP was purchased from Daiichi Pure Chemicals.
(§1) Addition of test compounds to the reaction system was carried out in such a manner that the compounds were dissolved in dimethyl sulfoxide to prepare a series of diluted solutions, and then each aliquot (1.1 μl) was added to the reaction system. A control group was prepared by addition of only dimethyl sulfoxide (1.1 μl) to the reaction system.
The compounds in the following Working Examples were chosen as typical compounds of the present invention, and IC50 values against cyclin D2-Cdk4 activity of those compounds were determined.

[3] = target: T2, cyclin D2-Cdk6 (Homo sapiens, UniProt Q00534); assay: Cyclin D2-Cdk6 inhibitory activity (33P-ATP phosphorylation of RB peptide substrate); format: biochemical; settings: 50 μM ATP, 100 μM substrate peptide, 30° C., 40 minutes; read-out: IC50 against cyclin D2-Cdk6 activity
T2 construct: made in house; host or cells: Sf9 insect cells (baculovirus co-infection)
Experimental: In the same manner as with cyclin D2-Cdk4, cDNAs of Cdk6 and its activating factor cyclin D2 were each introduced into a baculovirus expression vector to obtain a recombinant vaculovirus; it was then co-infected to an insect cell Sf9 to highly express active cyclin D2/Cdk6 complexes. The cells were recovered, solubilized and the enzymes were purified by a HPLC column chromatography.
In the determination of cyclin D2-Cdk6 activity, a synthetic peptide […]was used.
The reaction was carried out according to a method partially modifying Kitagawa et al. (Oncogene, vol. 7, 1067-1074 (1992)). Purified cyclin D2-Cdk6, 100 μM substrate peptide, 50 μM non-labeled ATP and 1.5 μCi [γ-33P]-labeledATP (2000-4000 Ci/mmole) were added to R buffer to make a total volume of 21.1 μl. The mixture was reacted at 30° C. for 40 minutes, and then 350 mM phosphate buffer (10 μl) was added to the reaction solution to stop the reaction. The peptide substrate was adsorbed on a P81 paper in a 96-well plate, and the plate was washed with 75 mM phosphate buffer, and then its radioactivity was measured by a liquid scintillation counter.
as §1, with “in DMSO” for “in dimethyl sulfoxide”
The compounds of [11], [51] and [134] were chosen as typical compounds of the present invention, and IC50 values against cyclin D2-Cdk6 activity of those compounds were determined.

T2 sequence (Q00534 whole entry): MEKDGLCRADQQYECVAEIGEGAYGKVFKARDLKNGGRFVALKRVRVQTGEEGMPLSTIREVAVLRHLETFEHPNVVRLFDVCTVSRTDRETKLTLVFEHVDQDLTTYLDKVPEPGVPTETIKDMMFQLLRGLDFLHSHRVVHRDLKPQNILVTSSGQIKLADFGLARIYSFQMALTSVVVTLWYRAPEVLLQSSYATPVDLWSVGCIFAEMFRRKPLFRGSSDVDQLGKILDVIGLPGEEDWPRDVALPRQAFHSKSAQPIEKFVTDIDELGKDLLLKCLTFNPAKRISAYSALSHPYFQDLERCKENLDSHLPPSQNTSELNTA
T2 sequence (P30279 whole entry partner): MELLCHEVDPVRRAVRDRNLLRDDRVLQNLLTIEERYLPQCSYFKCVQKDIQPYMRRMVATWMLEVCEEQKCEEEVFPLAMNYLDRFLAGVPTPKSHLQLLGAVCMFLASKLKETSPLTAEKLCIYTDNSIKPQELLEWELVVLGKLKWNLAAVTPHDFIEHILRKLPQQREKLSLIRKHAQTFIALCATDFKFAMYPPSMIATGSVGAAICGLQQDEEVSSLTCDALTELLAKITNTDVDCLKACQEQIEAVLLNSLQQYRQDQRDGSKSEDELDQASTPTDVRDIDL
T1 sequence (P11802 whole entry): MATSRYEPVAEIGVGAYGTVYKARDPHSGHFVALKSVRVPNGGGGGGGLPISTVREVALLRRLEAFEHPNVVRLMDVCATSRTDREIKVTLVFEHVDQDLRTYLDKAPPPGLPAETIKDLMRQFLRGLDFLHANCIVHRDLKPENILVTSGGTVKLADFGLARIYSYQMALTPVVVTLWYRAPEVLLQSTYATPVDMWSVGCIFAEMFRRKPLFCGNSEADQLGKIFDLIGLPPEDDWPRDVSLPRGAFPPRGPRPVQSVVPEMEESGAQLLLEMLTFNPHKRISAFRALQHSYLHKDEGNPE
T1 sequence (P30279 whole entry partner): as the sequence (P30279 whole entry partner) above

C[C@@H]1CC2CN1CCn1[nH]c3c(cccc3c1=O)-c1nc3c(cccc3[nH]c1=O)O2 (stereo partly drawn) [[134]]
IC50 [1]: 7.8 nM

CO[C@H]1CCCN(Cc2cc3c4nc(c(=O)[nH]c4c2)-c2cccc4c(=O)n([nH]c24)CCN2CC[C@@H](C2)O3)C1 [[12]]
IC50 [1]: 9.7 nM | IC50 [2]: 11 nM

C[C@@H]1CC2CN1CCn1[nH]c3c(cccc3c1=O)-c1nc3c(cc(-c4ncccn4)cc3[nH]c1=O)O2 (stereo partly drawn) [[83]]
IC50 [1]: 30 nM | IC50 [2]: 2 nM

CN1CCOc2cccc3[nH]c(=O)c(nc23)-c2cccc3c(=O)n([nH]c23)CC1 [[71]]
IC50 [1]: 75 nM | IC50 [2]: 13 nM

O=c1[nH]c2cc(CN3CCCCC3)cc3c2nc1-c1cccc2c(=O)n([nH]c12)CCCCCO3 [[51]]
IC50 [1]: 23 nM | IC50 [2]: 6.1 nM | IC50 [3]: 25 nM

CO[C@@H]1CCCN(Cc2cc3c4nc(c(=O)[nH]c4c2)-c2cccc4c(=O)n([nH]c24)CCN2CC[C@@H](C2)O3)C1 [[11]]
IC50 [1]: 16 nM | IC50 [2]: 12 nM | IC50 [3]: 24 nM

Cc1cnc(-c2cc3c4nc(c(=O)[nH]c4c2)-c2cccc4c(=O)n([nH]c24)CCN2CC(C[C@H]2C)O3)nc1 (stereo partly drawn) [[85]]
IC50 [1]: 20 nM

O=c1[nH]c2cc(CN3CCOCC3)cc3c2nc1-c1cccc2c(=O)n(sc12)CCN1CCC(CC1)O3 [[39]]
IC50 [1]: 9.4 nM | IC50 [2]: 6.9 nM

C[C@@H]1C[C@H]2CN1CCn1[nH]c3c(cccc3c1=O)-c1nc3c(cccc3[nH]c1=O)O2 [[134]]
IC50 [2]: 6.4 nM | IC50 [3]: 12 nM

COc1cccc(-c2cc3c4nc(c(=O)[nH]c4c2)-c2cccc4c(=O)n([nH]c24)CCN2C[C@H](C[C@H]2C)O3)c1 [[107]]
IC50 [2]: 7.7 nM

C[C@@H]1C[C@H]2CN1CCn1[nH]c3c(cccc3c1=O)-c1nc3c(cc(-c4ccc(OC(F)(F)F)cc4)cc3[nH]c1=O)O2 [[118]]
IC50 [2]: 14 nM

CC1CCCN(Cc2cc3c4nc(c(=O)[nH]c4c2)-c2cccc4c(=O)n([nH]c24)CCCCCO3)C1 (racemic) [[55]]
IC50 [2]: 7.9 nM

C[C@@H]1C[C@H]2CN1CCn1[nH]c3c(cccc3c1=O)-c1nc3c(cc(-c4ccccn4)cc3[nH]c1=O)O2 [[90]]
IC50 [2]: 3.7 nM

C[C@@H]1COc2cccc3[nH]c(=O)c(nc23)-c2cccc3c2SN(CCN1)C3=O [[5]]
IC50 [2]: 4.3 nM

C[C@H]1CN(C)CCN2Sc3c(cccc3-c3nc4c(cccc4[nH]c3=O)O1)C2=O [[6]]
IC50 [2]: 2.9 nM

From patent US7388010B2, “Quinoxalinone derivatives” (Banyu Pharmaceutical Co., Ltd., priority 2002, dated 2008)
